Measured values as given in PubChem BioAssay (NCI).
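Values below derive from 48-hour exposures of cells grown in 96-well plates, with endpoints linearly interpolated between the two concentrations bracketing the appropriate inhibition level. At the GI50, growth is halved. TGI marks complete inhibition of growth.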

Assays:
Assay in all cases: NCI tumour cell line growth inhibition, 48 h
SF-268 CNS = tested on: SF-268 CNS
NCI-H226 lung = tested on: NCI-H226 lung
SF-539 CNS = tested on: SF-539 CNS
SNB-19 CNS = tested on: SNB-19 CNS
MALME-3M melanoma = tested on: MALME-3M melanoma
MDA-MB-435 = tested on: MDA-MB-435
NCI-H23 lung = tested on: NCI-H23 lung
HS 578T breast = tested on: HS 578T breast
NCI/ADR-RES ovarian = tested on: NCI/ADR-RES ovarian
LOX IMVI melanoma = tested on: LOX IMVI melanoma

| Compound | GI50 (SF-268 CNS) | TGI (SF-268 CNS) | GI50 (NCI-H226 lung) | TGI (NCI-H226 lung) | GI50 (SF-539 CNS) | TGI (SF-539 CNS) | GI50 (SNB-19 CNS) | TGI (SNB-19 CNS) | GI50 (MALME-3M melanoma) | TGI (MALME-3M melanoma) | GI50 (MDA-MB-435) | TGI (MDA-MB-435) | GI50 (NCI-H23 lung) | TGI (NCI-H23 lung) | GI50 (HS 578T breast) | TGI (HS 578T breast) | GI50 (NCI/ADR-RES ovarian) | TGI (NCI/ADR-RES ovarian) | GI50 (LOX IMVI melanoma) | TGI (LOX IMVI melanoma) |
| --- | --- | --- | --- | --- | --- | --- | --- | --- | --- | --- | --- | --- | --- | --- | --- | --- | --- | --- | --- | --- |
| COc1ccc2sc3cccc(NCCN(C)C)c3c(=O)c2c1 | 3.81 µM | 14.4 µM | 3.34 µM | 14.1 µM | 3.52 µM | 13.3 µM | 2.78 µM | 14.1 µM | 1.95 µM | 3.88 µM | 2.03 µM | 5.07 µM | 3.64 µM | 14.2 µM | 2.83 µM | 13.1 µM | 2.98 µM | 11.3 µM |  |  |
| COC(=O)[C@@H](C)C[C@H](Cc1cn(C)c2ccccc12)NC(=O)c1csc([C@@H](C[C@H](C(C)C)N(C)C(=O)[C@@H](NC(=O)[C@H]2CCCCN2C)C(C)C)OC(C)=O)n1 | 0.0272 µM | > 16.7 µM | 0.0983 µM | > 12 µM | 0.0173 µM | 0.116 µM | 0.00883 µM | > 16.7 µM |  |  | 0.00215 µM | 0.00856 µM | 0.0718 µM | > 16.7 µM | 0.0105 µM | 7.58 µM | 0.417 µM | > 16.7 µM | 0.011 µM | > 16.7 µM |
| COc1c(C)cc(O)cc1C=O |  | > 100 µM |  | > 100 µM |  | > 100 µM |  | > 100 µM |  | > 100 µM |  |  |  |  |  |  |  |  |  | > 100 µM |
| COC(=O)C(=O)C(C(=O)C(=O)Nc1cccc(C(C)=O)c1)c1nc2ccc([N+](=O)[O-])cc2[nH]c1=O (configuration not stated) |  | > 100 µM |  | > 100 µM |  | > 100 µM |  | > 100 µM |  | > 100 µM |  |  |  | > 100 µM |  |  |  |  |  | > 100 µM |
| COc1cccc2ccc(C(=O)c3ccccc3)nc12 |  | > 100 µM |  | > 100 µM |  | > 100 µM |  |  |  | > 100 µM |  |  |  | > 100 µM |  |  |  |  |  | > 100 µM |
| O=c1cc(-c2ccccc2)oc2ccc(OC/C(=N/O)c3ccccc3)cc12 | 2.08 µM | 13.2 µM | 15.9 µM | > 50 µM | 1.39 µM | 2.93 µM | 2.34 µM | 35.2 µM |  |  |  |  | 2.4 µM | > 50 µM |  |  | 3.3 µM | > 50 µM | 2.76 µM | 20.2 µM |
| NCCCNc1nc2ccccc2c2c(=O)c3cc(F)cc(F)c3sc12 | 1.63 µM | 3.32 µM | 10.9 µM | 29.1 µM | 1.77 µM | 3.24 µM | 1.7 µM | 3.23 µM | 1.62 µM | 3.21 µM | 1.63 µM | 3.02 µM | 1.78 µM | 3.36 µM | 1.47 µM | 3.09 µM | 1.81 µM | 3.69 µM |  |  |
| O=C(/C=C/c1ccco1)c1cc(F)c(Cl)cc1Cl | 20 µM | 45.5 µM | 19.9 µM | 47.2 µM | 20 µM | 38.1 µM | 20 µM | 48.4 µM | 16.5 µM | 38.7 µM | 32.2 µM | > 100 µM | 31 µM | > 100 µM | 13.7 µM | 39.6 µM |  |  | 22.4 µM | 58.2 µM |
| COc1c(O)c(OC)c2oc(-c3ccc(O)c(O)c3)c(OC)c(=O)c2c1O |  | 10.3 µM |  | > 100 µM |  | > 100 µM |  | > 100 µM |  | 68 µM |  | 56.7 µM |  | > 100 µM |  |  |  | > 100 µM |  | 95.9 µM |
| Cc1ccc(S(=O)(=O)c2ccc(NC(=O)SCCC(=O)O)cc2)cc1 |  | > 100 µM |  | > 100 µM |  | > 100 µM |  | > 100 µM |  |  |  |  |  | > 100 µM |  |  |  |  |  | > 100 µM |
| C#CCNC(=O)N(CC#C)N=O |  | > 100 µM |  | > 100 µM |  | > 100 µM |  | > 100 µM |  | > 100 µM |  |  |  | > 100 µM |  |  |  |  |  | > 100 µM |
| CC(C)(C)OC(=O)N[C@H]1CC(O)c2ccccc2N(CC(=O)O)C1=O (some centres not stated) |  | > 100 µM |  | > 100 µM |  | > 100 µM |  | > 100 µM |  | > 100 µM |  |  |  | > 100 µM |  |  |  |  |  | > 100 µM |
| N.N.NCCCCCN.O=C([O-])CCl.O=C([O-])CCl.O=C([O-])CCl.O=C([O-])CCl.[Pt+4].[Pt+4] | 2.13 µM | 36.8 µM | 0.857 µM | 3.9 µM | 3.08 µM | 19.8 µM | 1.94 µM | 17.2 µM | 11.9 µM | 39.2 µM |  |  |  |  |  |  |  |  | 5.93 µM | > 100 µM |
| C[n+]1c(/C=C/c2c[nH]c3ccccc23)ccc2ccccc21 | 10.4 µM | 24.2 µM | 11 µM | 29.1 µM | 12.7 µM | 27.3 µM | 11.3 µM | 35.1 µM |  |  | 7.95 µM | 20.6 µM |  |  | 13.2 µM | 33.3 µM | > 100 µM | > 100 µM | 11 µM | 23.1 µM |
| CCCCCCCCOCC(O)COC(C)C (configuration not stated) |  | > 100 µM |  | > 100 µM |  |  |  | > 100 µM |  | > 100 µM |  |  |  | 88 µM |  |  |  |  |  | > 100 µM |
| O=S(=O)([O-])c1ccc(N=Cc2ccccc2[O-])cc1.O=S(=O)([O-])c1ccc(N=Cc2ccccc2[O-])cc1.[O]=[U+2]=[O] | > 100 µM | > 100 µM | > 100 µM | > 100 µM | 54.7 µM | > 100 µM | 66.4 µM | > 100 µM | > 100 µM | > 100 µM |  |  | > 100 µM | > 100 µM |  |  |  |  | > 100 µM | > 100 µM |
| CC(=O)Nc1ccc(/C=c2\sc3nnc(CCC(=O)Nc4ccccc4Cl)n3c2=O)cc1 |  | 88 µM |  | 52.7 µM |  | 58 µM |  | > 100 µM |  | > 100 µM |  |  |  | > 100 µM |  |  |  |  |  | 34.5 µM |
| COc1ccccc1NC(=O)C1=C(C)NC(C)=C(C(=O)Nc2ccccc2OC)C1C1=CC=COC1 |  | 62.4 µM |  | > 100 µM |  | 30.7 µM |  | 84.2 µM |  | > 100 µM |  |  |  | > 100 µM |  |  |  |  |  |  |
| COc1ccc2c(c1)[n+]([O-])c(-c1ccc([N+](=O)[O-])cc1)c(N)[n+]2[O-] |  | > 100 µM |  | > 100 µM |  | > 100 µM |  | > 100 µM |  | > 100 µM |  |  |  | > 100 µM |  |  |  |  |  |  |
| COc1ccc(OC(C)=O)c2c1CCC=CC2=O |  |  |  | 33.7 µM |  | 30.9 µM |  | 31.4 µM |  | 44.1 µM |  |  |  | 32.8 µM |  |  |  |  |  | 17.5 µM |
